Data on 15 compounds can be found in patent publication US10189777B2, “Benzenesulfonamido and related compounds for use as agonists of RORγ and the treatment of disease” (Lycera Corporation, priority 2014, dated 2019).

Experiment [1] addresses T1, HIS-tagged RORγ-LBD protein (Homo sapiens, UniProt P51449).
T1 construct: made in house; host or cells: SF9 cells, baculovirus expression system; the lysate was used
T1 sequence (P51449 269-508 limits assumed): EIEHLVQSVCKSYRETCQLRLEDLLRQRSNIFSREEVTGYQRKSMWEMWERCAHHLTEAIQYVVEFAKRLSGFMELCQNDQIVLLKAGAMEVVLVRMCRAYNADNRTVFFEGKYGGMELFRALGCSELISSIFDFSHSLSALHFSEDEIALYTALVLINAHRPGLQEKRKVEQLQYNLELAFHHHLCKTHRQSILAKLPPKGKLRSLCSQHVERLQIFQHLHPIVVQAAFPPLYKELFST
The experiment is described as follows: RORγ-Ligand Binding Domain (LBD) TR-FRET Assay. Format: biochemical. The settings on record: for TR-FRET Assay Max Response: upper plateau of 4-parameter fit, signal in the absence of ursolic acid or test compound set as 100; for EC50: with 2 μM RORγ antagonist ursolic acid, biotinylated SRC1 LXXLL peptide, ratio 665 nm/615 nm. The method, then:
(§1) Exemplary compounds from the above Examples were tested for ability to increase RORγ activity using (i) a RORγ-Ligand Binding Domain (LBD) TR-FRET Assay, and (ii) a Gal4-RORγ Luciferase Reporter Assay in HEK-293T Cells. Assay procedures and results are described below.
Part I—Procedures for RORγ-Ligand Binding Domain TR-FRET Assay
HIS-tagged RORγ-LBD protein was expressed in SF9 cells using a baculovirus expression system. The lysate was diluted in assay buffer (50 mM Tris pH 7.0, 50 mM KCl, 1 mM EDTA, 0.1 mM DTT, 0.01% BSA) to obtain RORγ-LBD final concentration of −3 nM in a 384-well assay plate (need to titrate for each batch of protein).
A stock of biotinylated-LXXLL peptide from coactivator SRC1 (Biotin-[…]) was prepared in assay buffer and added to each well (200 nM final concentration). A solution of Europium tagged anti-HIS antibody (0.6 nM final concentration) and APC-conjugated streptavidin (30 nM final concentration) were also added to each well. RORγ antagonist ursolic acid was also included at a final concentration of 2 μM. Compounds were diluted in DMSO and further diluted in assay buffer with a final DMSO concentration at 1%.
The final assay mixture was incubated overnight at 4° C. or 2 hours at room temperature, and the fluorescence signal was measured on an Envision plate reader: (Excitation filter=340 nm; APC emission=665 nm; Europium emission=615 nm; dichroic mirror=D400/D630; delay time=100 μs, integration time=200 μs). 50% Effective concentration (EC50) values for test compounds were calculated from the quotient of the fluorescence signal at 665 nm divided by the fluorescence signal at 615 nm. The quotient of the fluorescence signals in the absence of ursolic acid or test compound is set as 100. Max Response is defined as the upper plateau in the signal as determined by line-fit using a 4-parameter logistic model in PRISM (GraphPad).
(In general: TR-FRET usually uses a lanthanide donor and a delayed reading to cut background.)

The target of experiment [2] is T2, Gal4-RORγ-LBD (Homo sapiens, UniProt P51449).
T2 construct: expressed in transfected cells
T2 sequence (P51449 269-508 limits assumed): T1 sequence (P51449 269-508 limits assumed)
The experiment is described as follows: Gal4-RORγ Luciferase Reporter Assay in HEK-293T Cells. It counts as cell-based. To be noted: for EC50: HEK-293 cells, with 2 μM ursolic acid, incubated overnight, luciferase readout; for Gal4-RORγ Assay Max Response: upper plateau of 4-parameter fit, luciferase signal in the absence of ursolic acid or test compound defined at 100. How it is done:
as §1
Part II—Procedures for Gal4-RORγ Luciferase Reporter Assay in HEK-293T Cells
Transfection of HEK-293 Cells
In the following protocol, HEK-293 cells were transfected with a construct comprising the Gal4 DNA binding domain fused to the ligand binding domain of RORγ (Gal4-RORγ-LBD) in a pcDNA3.1neo plasmid, and also with a reporter construct comprising pGL4.31 Gal4-luciferase (Promega). Control cells were prepared similarly using empty pcDNA3.1neo and pGL4.31 vectors.
Trans-IT reagent (Mirus, 60 μL) at room temperature was added drop wise to OptiMEM (Invitrogen, 1.5 ml). This reagent mixture was mixed by inversion then incubated for 5 to 30 minutes at room temperature. It then was added to a solution of both expression vectors (5 μg each), mixed, and incubated at room temperature for about 20 minutes. HEK-293 cells were harvested from incubation flasks by removing the media, treating with TrypLE Express (Invitrogen), and incubating until the cells detached from the bottom of the flask (approximately 2-5 minutes). 10 Million cells were collected by centrifugation and re-suspended in 10 mL of Dulbecco's Modified Eagle Medium, High Glucose (DMEM, Invitrogen) containing 10% Fetal Bovine Serum and 100 IU each of penicillin and streptomycin. The re-suspended cells and the transfection mixture were added to a T75 flask, mixed and incubated overnight at 37° C. and 5% CO2.
The cells were harvested as described above, counted, and centrifuged to obtain the desired number of cells, then re-suspended in complete growth media at 0.75×10^6 cells/mL. The RORγ antagonist, ursolic acid, was added to the cells at a final concentration of 2 μM. Cells were plated at 20 μL of cell suspension/well (10,000-15,000 cells/well) in white tissue culture treated 384 well plates. Test compounds were dissolved at 10 mM in DMSO then diluted into complete growth medium to 5× the final intended test concentration. These drug stock solutions, 5 μL/well were added to the tissue culture plate. The final DMSO concentration was 0.2%. The plates were briefly centrifuged then incubated overnight at 37° C. and 5% CO2. To conduct the assay, the tissue culture plates were allowed to equilibrate to room temperature and One-Glo luciferase reagent (Promega, 25 μL/well) was added. The plates were briefly centrifuged then incubated at room temperature for 10 minutes. The luciferase intensity was read on an Envision plate reader (Perkin Elmer). RORγ activity was determined relative to controls and plotted as a function of test compound concentration using PRISM (GraphPad) to determine a 50% effective concentration (EC50). The luciferase signal in the absence of ursolic acid or test compound is defined at 100. The Max Response is the upper plateau in the signal as determined by line-fit using a 4-parameter logistic model in PRISM (GraphPad).
In general terms: In a reporter assay the amount or activity of a reporter protein is the signal.

Turning to `CCN(c1cccc(OCc2ccccc2Cl)c1)S(=O)(=O)c1cccc(C(F)(F)F)c1`, in experiment [1], the “TR-FRET Assay Max Response” value is “**** (The symbol “****” indicates a value greater than 200)” and the EC50 (usually the concentration giving half of the maximal effect) lay within 500 to 5000 nM. Further, in experiment [2], the EC50 fell in the range of 500 to 5000 nM and the “Gal4-RORγ Assay Max Response” value was “** (The symbol “**” indicates a value in the range of greater than 90 to 150)”.
As for `CCC(c1ccc(OCc2c(F)cccc2Cl)cc1)S(=O)(=O)c1ccc(Cl)cc1` (stereo not shown), in experiment [1], the “TR-FRET Assay Max Response” value is recorded as “*** (The symbol “***” indicates a value in the range of greater than 150 to 200)” and the EC50 was below 500 nM. Further, in experiment [2], the EC50 is 500 to 5000 nM and the “Gal4-RORγ Assay Max Response” value is listed as “* (The symbol “*” indicates a value in the range of 70 to 90)”.
The like results for `CCN(c1cccc(OC2CCc3cccc(F)c32)c1)S(=O)(=O)c1cccc(C(F)(F)F)c1` (stereo not shown) were, in that order, “*** (The symbol “***” indicates a value in the range of greater than 150 to 200)”, below 500 nM, above 10000 nM and “**** (The symbol “****” indicates a value greater than 200)”.
The like results for `CCN(c1cccc(OC2CCc3cccc(Cl)c32)c1)S(=O)(=O)c1cccc(C(F)(F)F)c1` (stereo not shown) were, in that order, “*** (The symbol “***” indicates a value in the range of greater than 150 to 200)”, below 500 nM, 5000 to 10000 nM and “*** (The symbol “***” indicates a value in the range of greater than 150 to 200)”.
Regarding `CCC(c1ccc(OCc2c(F)cccc2Cl)cc1)S(=O)(=O)c1cccc(C(F)(F)F)c1` (stereo not shown), in experiment [1], the “TR-FRET Assay Max Response” value was “*** (The symbol “***” indicates a value in the range of greater than 150 to 200)” and the EC50 is below 500 nM. In addition, in experiment [2], the EC50 was below 500 nM and the “Gal4-RORγ Assay Max Response” value was “** (The symbol “**” indicates a value in the range of greater than 90 to 150)”.
Regarding `CCN(c1cccc(OCCc2c(Cl)cccc2Cl)c1)S(=O)(=O)c1cccc(C(F)(F)F)c1`, in experiment [1], the “TR-FRET Assay Max Response” value was “**** (The symbol “****” indicates a value greater than 200)” and the EC50 is 500 to 5000 nM. For the same compound, in experiment [2], the EC50 lay in the range of 500 to 5000 nM and the “Gal4-RORγ Assay Max Response” value was “** (The symbol “**” indicates a value in the range of greater than 90 to 150)”.
Regarding `CCN(c1cccc(OCCc2c(F)cccc2Cl)c1)S(=O)(=O)c1cccc(C(F)(F)F)c1`, in experiment [1], the “TR-FRET Assay Max Response” value is given as “*** (The symbol “***” indicates a value in the range of greater than 150 to 200)” and the EC50 is 500 to 5000 nM. In experiment [2], the EC50 is above 10000 nM and the “Gal4-RORγ Assay Max Response” value is on record as “** (The symbol “**” indicates a value in the range of greater than 90 to 150)”.
For the compound `CCOc1nn(CC)cc1S(=O)(=O)N(CC)c1cccc(OCc2c(F)cccc2Cl)c1`, in experiment [1], the “TR-FRET Assay Max Response” value is recorded as “**** (The symbol “****” indicates a value greater than 200)” and the EC50 was in the range of 500 to 5000 nM. Also, in experiment [2], the EC50 lay in the range of 500 to 5000 nM and the “Gal4-RORγ Assay Max Response” value was “** (The symbol “**” indicates a value in the range of greater than 90 to 150)”.
On to `CCN(c1cccc(OCc2c(F)cccc2C(F)(F)F)c1)S(=O)(=O)c1cccc(C(F)(F)F)c1`, for which, in experiment [1], the “TR-FRET Assay Max Response” value is given as “**** (The symbol “****” indicates a value greater than 200)” and the EC50 was below 500 nM. Besides, in experiment [2], the 50% effective concentration (EC50) fell in the range of 500 to 5000 nM and the “Gal4-RORγ Assay Max Response” value is “** (The symbol “**” indicates a value in the range of greater than 90 to 150)”.
As to `CCN(c1cccc(NCc2ccccc2Cl)c1)S(=O)(=O)c1cccc(C(F)(F)F)c1`, in experiment [1], the “TR-FRET Assay Max Response” value is reported as “**** (The symbol “****” indicates a value greater than 200)” and the EC50 was below 500 nM. Besides, in experiment [2], the EC50 was 500 to 5000 nM and the “Gal4-RORγ Assay Max Response” value is given as “** (The symbol “**” indicates a value in the range of greater than 90 to 150)”.
In the case of `CCN(c1cccc(OCc2cc(Cl)ccc2Cl)c1)S(=O)(=O)c1cccc(C(F)(F)F)c1`, in experiment [1], the “TR-FRET Assay Max Response” value is “**** (The symbol “****” indicates a value greater than 200)” and the EC50 is below 500 nM. For the same compound, in experiment [2], the EC50 lay in the range of 5000 to 10000 nM and the “Gal4-RORγ Assay Max Response” value is “*** (The symbol “***” indicates a value in the range of greater than 150 to 200)”.
For `CCC(c1cccc(OCc2ccccc2)c1)S(=O)(=O)c1cccc(C(F)(F)F)c1` (stereo not shown), in experiment [1], the “TR-FRET Assay Max Response” value is “** (The symbol “**” indicates a value in the range of greater than 90 to 150)” and the EC50 is 5000 to 10000 nM. For the same compound, in experiment [2], the EC50 is 500 to 5000 nM and the “Gal4-RORγ Assay Max Response” value is on record as “* (The symbol “*” indicates a value in the range of 70 to 90)”.
Turning to `CCN(c1cccc(OCc2c(Cl)cccc2Cl)c1)S(=O)(=O)c1cccc(C(F)(F)F)c1`, in experiment [1], the “TR-FRET Assay Max Response” value is reported as “*** (The symbol “***” indicates a value in the range of greater than 150 to 200)” and the EC50 was below 500 nM. In addition, in experiment [2], the EC50 fell in the range of 500 to 5000 nM and the “Gal4-RORγ Assay Max Response” value is reported as “** (The symbol “**” indicates a value in the range of greater than 90 to 150)”.
As for `CCN(c1cccc(OCc2c(F)cccc2OC)c1)S(=O)(=O)c1cccc(C(F)(F)F)c1`, in experiment [1], the “TR-FRET Assay Max Response” value is given as “**** (The symbol “****” indicates a value greater than 200)” and the EC50 was below 500 nM. The EC50 in experiment [2] is above 10000 nM.
As for `CCOc1nn(CC)cc1S(=O)(=O)N(CC)c1cccc(OC2CCc3ccccc32)c1` (stereo not shown), the “TR-FRET Assay Max Response” value in experiment [1] was “**** (The symbol “****” indicates a value greater than 200)”. Further, the EC50 in experiment [1] is 500 to 5000 nM; in experiment [2] it was above 10000 nM.
